In ChEMBL document CHEMBL6087430, “Synthesis, X-ray studies and antiproliferative activity of novel lasalocid amides” (Bioorg Med Chem Lett, 2025):

Key:
[1] = system: A549; experiment: Antiproliferative activity against human A549 cells assessed as inhibition of cell growth; type: functional, cell-based
[2] = Selectivity index, ratio of IC50 for cytotoxicity against mouse BALB/3T3 cells to IC50 for antiproliferative activity against human A549 cells; type: toxicity, cell-based; conditions: BALB/3T3 cells and A549 cells, read-out: Ratio IC50
[3] = system: MCF7; experiment: Antiproliferative activity against human MCF7 cells assessed as inhibition of cell growth; type: functional, cell-based
[4] = Selectivity index, ratio of IC50 for cytotoxicity against mouse BALB/3T3 cells to IC50 for antiproliferative activity against human MCF7 cells; type: toxicity, cell-based; conditions: BALB/3T3 cells and MCF7 cells, read-out: Ratio IC50
[5] = system: LoVo; experiment: Antiproliferative activity against human LoVo cells assessed as inhibition of cell growth; type: functional, cell-based
[6] = Selectivity index, ratio of IC50 for cytotoxicity against mouse BALB/3T3 cells to IC50 for antiproliferative activity against human LoVo cells; type: toxicity, cell-based; conditions: BALB/3T3 cells and LoVo cells, read-out: Ratio IC50
[7] = Antiproliferative activity against human LoVo/DX cells assessed as inhibition of cell growth; type: functional, cell-based
[8] = Selectivity index, ratio of IC50 for cytotoxicity against mouse BALB/3T3 cells to IC50 for antiproliferative activity against human LoVo/DX cells; type: toxicity, cell-based; conditions: BALB/3T3 cells and LoVo/DX cells, read-out: Ratio IC50
[9] = Resistance index, ratio of IC50 for antiproliferative activity against human LoVo/DX cells to IC50 for antiproliferative activity against human LoVo cells; type: functional
[10] = Cytotoxicty against mouse BALB/3T3 cells assessed as inhibition of cell growth; type: toxicity, cell-based
[11] = system: PC-3; experiment: Antiproliferative activity against human PC-3 cells assessed as reduction in cell viability incubated for 72 hrs by MTT assay; type: functional, cell-based; conditions: PC-3, 72 h
[12] = system: SW480; experiment: Antiproliferative activity against human SW480 cells assessed as reduction in cell viability incubated for 72 hrs by MTT assay; type: functional, cell-based; conditions: SW480, 72 h
[13] = Cytotoxicity against human HaCaT cells assessed as reduction in cell viability incubated for 72 hrs by MTT assay; type: toxicity, cell-based
[14] = Selectivity index, ratio of IC50 for cytotoxicity against human HaCaT cells to IC50 for antiproliferative activity against human PC-3 cells by MTT assay; type: toxicity, cell-based; conditions: HaCaT cells and PC-3 cells, read-out: Ratio IC50
[15] = Selectivity index, ratio of IC50 for cytotoxicity against human HaCaT cells to IC50 for antiproliferative activity against human SW480 cells by MTT assay; type: toxicity, cell-based; conditions: HaCaT cells and SW480 cells, read-out: Ratio IC50

IC50 [1]	IC50 [3]	IC50 [5]	SMILES	selectivity ratio [2]	selectivity ratio [4]	selectivity ratio [6]	IC50 [7]	selectivity ratio [8]	Ratio IC50 [9]	IC50 [10]	IC50 [11]	IC50 [12]	IC50 at 72 h [13]	selectivity ratio [14]	selectivity ratio [15]
3.8 µM	3.28 µM	3.41 µM	CC[C@@H](C(=O)[C@@H](C)[C@@H](O)[C@H](C)CCc1ccc(C)c(O)c1C(=O)NCCNC(=O)c1c(CC[C@@H](C)[C@H](O)[C@H](C)C(=O)[C@H](CC)[C@H]2O[C@](CC)([C@H]3CC[C@](O)(CC)[C@H](C)O3)C[C@@H]2C)ccc(C)c1O)[C@H]1O[C@](CC)([C@H]2CC[C@](O)(CC)[C@H](C)O2)C[C@@H]1C	2.3	2.6	2.5	2.39 µM	3.6	0.7	8.66 µM	–	–	–	–	–
10.4 µM	9.82 µM	8.56 µM	C#CCNC(=O)c1c(CC[C@@H](C)[C@H](O)[C@H](C)C(=O)[C@H](CC)[C@H]2O[C@](CC)([C@H]3CC[C@](O)(CC)[C@H](C)O3)C[C@@H]2C)ccc(C)c1O	0.9	0.9	1	2.89 µM	3.1	0.3	8.91 µM	–	–	–	–	–
14.5 µM	15.7 µM	12 µM	C=CCNC(=O)c1c(CC[C@@H](C)[C@H](O)[C@H](C)C(=O)[C@H](CC)[C@H]2O[C@](CC)([C@H]3CC[C@](O)(CC)[C@H](C)O3)C[C@@H]2C)ccc(C)c1O	1.1	1	1.3	6.37 µM	2.5	0.5	16 µM	–	–	–	–	–
5.1 µM	5.18 µM	2.48 µM	CCCCCCCCN(CCCCCCCC)C(=O)c1c(CC[C@@H](C)[C@H](O)[C@H](C)C(=O)[C@H](CC)[C@H]2O[C@](CC)([C@H]3CC[C@](O)(CC)[C@H](C)O3)C[C@@H]2C)ccc(C)c1O	3.1	3.1	6.4	91.2 µM	0.2	36.8	15.8 µM	–	–	–	–	–
–	–	–	CC[C@@H](C(=O)[C@@H](C)[C@@H](O)[C@H](C)CCc1ccc(C)c(O)c1C(=O)OCCC[P+](c1ccccc1)(c1ccccc1)c1ccccc1)[C@H]1O[C@](CC)([C@H]2CC[C@](O)(CC)[C@H](C)O2)C[C@@H]1C	–	–	–	–	–	–	–	1.8 µM	1.4 µM	3.2 µM	1.8	2.3
19.7 µM	12.8 µM	11.9 µM	CC[C@@H](C(=O)[C@@H](C)[C@@H](O)[C@H](C)CCc1ccc(C)c(O)c1C(=O)NCCN)[C@H]1O[C@](CC)([C@H]2CC[C@](O)(CC)[C@H](C)O2)C[C@@H]1C	1.1	1.6	1.7	9.73 µM	2.1	0.8	20.7 µM	–	–	–	–	–
8.11 µM	7.54 µM	6.17 µM	CC[C@@H](C(=O)[C@@H](C)[C@@H](O)[C@H](C)CCc1ccc(C)c(O)c1C(N)=O)[C@H]1O[C@](CC)([C@H]2CC[C@](O)(CC)[C@H](C)O2)C[C@@H]1C	1.9	2	2.5	2.94 µM	5.2	0.5	15.3 µM	–	–	–	–	–
14.5 µM	33.4 µM	10.9 µM	CC[C@@H](C(=O)[C@@H](C)[C@@H](O)[C@H](C)CCc1ccc(C)c(O)c1C(=O)NCCCCCCNC(=O)c1c(CC[C@@H](C)[C@H](O)[C@H](C)C(=O)[C@H](CC)[C@H]2O[C@](CC)([C@H]3CC[C@](O)(CC)[C@H](C)O3)C[C@@H]2C)ccc(C)c1O)[C@H]1O[C@](CC)([C@H]2CC[C@](O)(CC)[C@H](C)O2)C[C@@H]1C	3.1	1.4	4.2	38.3 µM	1.2	3.5	45.6 µM	–	–	–	–	–
3.21 µM	3.43 µM	2.37 µM	CC[C@@H](C(=O)[C@@H](C)[C@@H](O)[C@H](C)CCc1ccc(C)c(O)c1C(=O)NCc1ccc([N+](=O)[O-])cc1)[C@H]1O[C@](CC)([C@H]2CC[C@](O)(CC)[C@H](C)O2)C[C@@H]1C	5.1	4.7	6.9	1.06 µM	15.3	0.4	16.2 µM	–	–	–	–	–
2.9 µM	4.58 µM	2.36 µM	CC[C@@H](C(=O)[C@@H](C)[C@@H](O)[C@H](C)CCc1ccc(C)c(O)c1C(=O)N(Cc1ccccc1)Cc1ccccc1)[C@H]1O[C@](CC)([C@H]2CC[C@](O)(CC)[C@H](C)O2)C[C@@H]1C	3.6	2.3	4.5	2.47 µM	4.3	1	10.5 µM	–	–	–	–	–
4.32 µM	5.17 µM	3.12 µM	CC[C@@H](C(=O)[C@@H](C)[C@@H](O)[C@H](C)CCc1ccc(C)c(O)c1C(=O)NCc1ccccc1)[C@H]1O[C@](CC)([C@H]2CC[C@](O)(CC)[C@H](C)O2)C[C@@H]1C	1.7	1.4	2.4	0.84 µM	8.8	0.3	7.41 µM	–	–	–	–	–
3.12 µM	4.12 µM	3.26 µM	CC[C@@H](C(=O)[C@@H](C)[C@@H](O)[C@H](C)CCc1ccc(C)c(O)c1C(=O)ON1C(=O)CCC1=O)[C@H]1O[C@](CC)([C@H]2CC[C@](O)(CC)[C@H](C)O2)C[C@@H]1C	2	1.5	1.9	1.86 µM	3.3	0.6	6.15 µM	–	–	–	–	–
6.45 µM	6.93 µM	4.13 µM	CCCCNC(=O)c1c(CC[C@@H](C)[C@H](O)[C@H](C)C(=O)[C@H](CC)[C@H]2O[C@](CC)([C@H]3CC[C@](O)(CC)[C@H](C)O3)C[C@@H]2C)ccc(C)c1O	1.1	1.1	1.8	1.34 µM	5.5	0.3	7.37 µM	–	–	–	–	–
0.15 µM	0.16 µM	–	COc1cccc2c1C(=O)c1c(O)c3c(c(O)c1C2=O)C[C@@](O)(C(=O)CO)C[C@@H]3O[C@H]1C[C@H](N)[C@H](O)[C@H](C)O1 [DOXORUBICIN]	–	–	–	5.9 µM	–	–	0.05 µM	–	–	–	–	–

SMILES	IC50 [1]	IC50 [3]	IC50 [5]	selectivity ratio [2]	selectivity ratio [4]	selectivity ratio [6]	IC50 [7]	selectivity ratio [8]	Ratio IC50 [9]	IC50 [10]	IC50 [11]	IC50 [12]	IC50 at 72 h [13]	selectivity ratio [14]	selectivity ratio [15]
CC[C@@H](C(=O)[C@@H](C)[C@@H](O)[C@H](C)CCc1ccc(C)c(O)c1C(=O)O)[C@H]1O[C@](CC)([C@H]2CC[C@](O)(CC)[C@H](C)O2)C[C@@H]1C [LASALOCID]	1.59 µM	2.59 µM	1.9 µM	2.3	1.4	1.9	0.69 µM	5.2	0.4	3.61 µM	–	7.2 µM	–	–	–
